Results from PubChem BioAssay AID2060498 (Molecular Pharmacology Branch, DTP, NCI, 2025).
Each block holds one compound with its values, some of them ahead of it.

Tested on: 171881-019-R-J1-PDC tumor spheroids, viability
Experiment: Anticancer human tumor 171881-019-R-J1-PDC patient-derived invasive breast carcinoma cell line growth inhibition [GQUAD]
Settings: spheroids with HUVEC and MSC; for IC50: curve of first compound; for viability, T/C: stronger effect = lower value
Method in brief: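 Tumor cells were grown as complex spheroids with HUVEC endothelial cells and mesenchymal stem cells as stroma. G-quadruplex stabilizers were combined with targeted agents over half-log dilutions from near the clinical Cmax, or from 10 microM.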

[1] = second compound 0.0316 µM, first compound 0.0316 µM
[2] = second compound 0.0316 µM, first compound 0.1 µM
[3] = second compound 0.0316 µM, first compound 0.316 µM
[4] = second compound 0.0316 µM, first compound 1 µM
[5] = second compound 0.0316 µM, first compound 3.16 µM
[6] = second compound 0.0316 µM, first compound 10 µM
[7] = second compound 0.1 µM, first compound 0.0316 µM
[8] = second compound 0.1 µM, first compound 0.1 µM
[9] = second compound 0.1 µM, first compound 0.316 µM
[10] = second compound 0.1 µM, first compound 1 µM
[11] = second compound 0.1 µM, first compound 3.16 µM
[12] = second compound 0.1 µM, first compound 10 µM
[13] = second compound 0.316 µM, first compound 0.0316 µM
[14] = second compound 0.316 µM, first compound 0.1 µM
[15] = second compound 0.316 µM, first compound 0.316 µM
[16] = second compound 0.316 µM, first compound 1 µM
[17] = second compound 0.316 µM, first compound 3.16 µM
[18] = second compound 0.316 µM, first compound 10 µM
[19] = second compound 1 µM, first compound 0.0316 µM
[20] = second compound 1 µM, first compound 0.1 µM
[21] = second compound 1 µM, first compound 0.316 µM
[22] = second compound 1 µM, first compound 1 µM
[23] = second compound 1 µM, first compound 3.16 µM
[24] = second compound 1 µM, first compound 10 µM
[25] = second compound 3.16 µM, first compound 0.0316 µM
[26] = second compound 3.16 µM, first compound 0.1 µM
[27] = second compound 3.16 µM, first compound 0.316 µM
[28] = second compound 3.16 µM, first compound 1 µM
[29] = second compound 3.16 µM, first compound 3.16 µM
[30] = second compound 3.16 µM, first compound 10 µM
[31] = second compound 10 µM, first compound 0.0316 µM
[32] = second compound 10 µM, first compound 0.1 µM
[33] = second compound 10 µM, first compound 0.316 µM
[34] = second compound 10 µM, first compound 1 µM
[35] = second compound 10 µM, first compound 3.16 µM
[36] = second compound 10 µM, first compound 10 µM
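Also: spheroids exposed to compounds for 7 days.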
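For viability, T/C in this document: 100% = DMSO vehicle control viability.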

SMILES: O=C(NO)c1cnc(N2CCN(S(=O)(=O)c3ccc4ccccc4c3)CC2)nc1 + Cc1[nH]c2ccc(F)cc2c1-c1nc2c3cccnc3c3ncccc3c2[nH]1
IC50 (second compound 0.0316 µM): 348 nM
IC50 (second compound 0.1 µM): 410 nM
IC50 (second compound 0.316 µM): 341 nM
IC50 (second compound 1 µM): 148 nM
IC50 (second compound 3.16 µM): < 31.6 nM
IC50 (second compound 10 µM): < 31.6 nM
viability, T/C [1]: 93.7%
viability, T/C [2]: 83.3%
viability, T/C [3]: 55%
viability, T/C [4]: 1.74%
viability, T/C [5]: 0.09%
viability, T/C [6]: 0.15%
viability, T/C [7]: 88.4%
viability, T/C [8]: 78.7%
viability, T/C [9]: 63.8%
viability, T/C [10]: 2.75%
viability, T/C [11]: 0.09%
viability, T/C [12]: 0.11%
viability, T/C [13]: 73.3%
viability, T/C [14]: 65.3%
viability, T/C [15]: 53.4%
viability, T/C [16]: 2.53%
viability, T/C [17]: 0.14%
viability, T/C [18]: 0.21%
viability, T/C [19]: 60.2%
viability, T/C [20]: 49.3%
viability, T/C [21]: 41.2%
viability, T/C [22]: 1.79%
viability, T/C [23]: 0.34%
viability, T/C [24]: 0.4%
viability, T/C [25]: 7.54%
viability, T/C [26]: 5.44%
viability, T/C [27]: 2.89%
viability, T/C [28]: 0.17%
viability, T/C [29]: 0.14%
viability, T/C [30]: 0.28%
viability, T/C [31]: 34.9%
viability, T/C [32]: 31.9%
viability, T/C [33]: 24.6%
viability, T/C [34]: 0.85%
viability, T/C [35]: 0.2%
viability, T/C [36]: 0.32%

SMILES: CC(=O)O[C@H]1C(=O)[C@@]2(C)[C@H]([C@H](OC(=O)c3ccccc3)[C@]3(O)C[C@H](OC(=O)[C@H](O)[C@@H](NC(=O)c4ccccc4)c4ccccc4)C(C)=C1C3(C)C)[C@]1(OC(C)=O)CO[C@@H]1C[C@@H]2O + CN(C)c1ccc(Nc2c3ccc(NC(=O)CCN4CCCC4)cc3nc3cc(NC(=O)CCN4CCCC4)ccc23)cc1
IC50 (second compound 0.0316 µM): < 31.6 nM
IC50 (second compound 0.1 µM): < 31.6 nM
IC50 (second compound 0.316 µM): < 31.6 nM
IC50 (second compound 1 µM): < 31.6 nM
IC50 (second compound 3.16 µM): < 31.6 nM
IC50 (second compound 10 µM): < 31.6 nM
viability, T/C [1]: 43.1%
viability, T/C [2]: 29.6%
viability, T/C [3]: 29.1%
viability, T/C [4]: 25.7%
viability, T/C [5]: 27.4%
viability, T/C [6]: 26.6%
viability, T/C [7]: 44.7%
viability, T/C [8]: 32.1%
viability, T/C [9]: 26.8%
viability, T/C [10]: 28.4%
viability, T/C [11]: 26.4%
viability, T/C [12]: 25.6%
viability, T/C [13]: 25.1%
viability, T/C [14]: 22.9%
viability, T/C [15]: 20.6%
viability, T/C [16]: 14.4%
viability, T/C [17]: 19.6%
viability, T/C [18]: 15.7%
viability, T/C [19]: 3.67%
viability, T/C [20]: 2.91%
viability, T/C [21]: 3.17%
viability, T/C [22]: 2.09%
viability, T/C [23]: 2.08%
viability, T/C [24]: 2.43%
viability, T/C [25]: 0.23%
viability, T/C [26]: 0.45%
viability, T/C [27]: 0.18%
viability, T/C [28]: 0.19%
viability, T/C [29]: 0.24%
viability, T/C [30]: 0.32%
viability, T/C [31]: 0.1%
viability, T/C [32]: 0.18%
viability, T/C [33]: 0.1%
viability, T/C [34]: 0.11%
viability, T/C [35]: 0.27%
viability, T/C [36]: 0.19%

SMILES: O=C(NO)c1cnc(N2CCN(S(=O)(=O)c3ccc4ccccc4c3)CC2)nc1 + CN(C)c1ccc(Nc2c3ccc(NC(=O)CCN4CCCC4)cc3nc3cc(NC(=O)CCN4CCCC4)ccc23)cc1
IC50 (second compound 0.0316 µM): 197 nM
IC50 (second compound 0.1 µM): 215 nM
IC50 (second compound 0.316 µM): < 31.6 nM
IC50 (second compound 1 µM): < 31.6 nM
IC50 (second compound 3.16 µM): < 31.6 nM
IC50 (second compound 10 µM): < 31.6 nM
viability, T/C [1]: 101%
viability, T/C [2]: 73.7%
viability, T/C [3]: 35.6%
viability, T/C [4]: 0.61%
viability, T/C [5]: 0.11%
viability, T/C [6]: 0.11%
viability, T/C [7]: 86.7%
viability, T/C [8]: 80.1%
viability, T/C [9]: 34.8%
viability, T/C [10]: 0.74%
viability, T/C [11]: 0.22%
viability, T/C [12]: 0.38%
viability, T/C [13]: 44.2%
viability, T/C [14]: 37.8%
viability, T/C [15]: 10.6%
viability, T/C [16]: 0.25%
viability, T/C [17]: 0.08%
viability, T/C [18]: 0.21%
viability, T/C [19]: 3.24%
viability, T/C [20]: 1.83%
viability, T/C [21]: 0.75%
viability, T/C [22]: 0.1%
viability, T/C [23]: 0.06%
viability, T/C [24]: 0.31%
viability, T/C [25]: 0.23%
viability, T/C [26]: 0.4%
viability, T/C [27]: 0.28%
viability, T/C [28]: 0.06%
viability, T/C [29]: 0.08%
viability, T/C [30]: 0.1%
viability, T/C [31]: 0.07%
viability, T/C [32]: 0.12%
viability, T/C [33]: 0.38%
viability, T/C [34]: 0.34%
viability, T/C [35]: 0.29%
viability, T/C [36]: 0.15%

SMILES: COc1ncnc(C2CC2)c1-c1ncc2cnn(Cc3ccc(-c4nc(C(F)(F)F)cn4C(C)C)cc3)c2n1 + CN(C)c1ccc(Nc2c3ccc(NC(=O)CCN4CCCC4)cc3nc3cc(NC(=O)CCN4CCCC4)ccc23)cc1
IC50 (second compound 0.0316 µM): > 10000 nM
IC50 (second compound 0.1 µM): > 10000 nM
IC50 (second compound 0.316 µM): < 31.6 nM
IC50 (second compound 1 µM): < 31.6 nM
IC50 (second compound 3.16 µM): < 31.6 nM
IC50 (second compound 10 µM): < 31.6 nM
viability, T/C [1]: 86.7%
viability, T/C [2]: 100%
viability, T/C [3]: 101%
viability, T/C [4]: 104%
viability, T/C [5]: 92.8%
viability, T/C [6]: 86.3%
viability, T/C [7]: 97%
viability, T/C [8]: 93.3%
viability, T/C [9]: 90.3%
viability, T/C [10]: 88.9%
viability, T/C [11]: 80.3%
viability, T/C [12]: 67.1%
viability, T/C [13]: 39.9%
viability, T/C [14]: 37%
viability, T/C [15]: 35.6%
viability, T/C [16]: 28.8%
viability, T/C [17]: 24.3%
viability, T/C [18]: 11.6%
viability, T/C [19]: 3.06%
viability, T/C [20]: 1.98%
viability, T/C [21]: 2.28%
viability, T/C [22]: 1.99%
viability, T/C [23]: 1.79%
viability, T/C [24]: 1.02%
viability, T/C [25]: 0.27%
viability, T/C [26]: 0.25%
viability, T/C [27]: 0.36%
viability, T/C [28]: 0.22%
viability, T/C [29]: 0.34%
viability, T/C [30]: 0.18%
viability, T/C [31]: 0.13%
viability, T/C [32]: 0.32%
viability, T/C [33]: 0.16%
viability, T/C [34]: 0.41%
viability, T/C [35]: 0.41%
viability, T/C [36]: 0.19%

IC50 (second compound 0.0316 µM): < 31.6 nM
IC50 (second compound 0.1 µM): < 31.6 nM
IC50 (second compound 0.316 µM): < 31.6 nM
IC50 (second compound 1 µM): < 31.6 nM
IC50 (second compound 3.16 µM): < 31.6 nM
IC50 (second compound 10 µM): < 31.6 nM
SMILES: CC(=O)O[C@H]1C(=O)[C@@]2(C)[C@H]([C@H](OC(=O)c3ccccc3)[C@]3(O)C[C@H](OC(=O)[C@H](O)[C@@H](NC(=O)c4ccccc4)c4ccccc4)C(C)=C1C3(C)C)[C@]1(OC(C)=O)CO[C@@H]1C[C@@H]2O + Cc1cnc(CNC(=O)c2c(=O)c3ccc(N4CCCN(C)CC4)nc3n3c2sc2ccccc23)cn1
viability, T/C [1]: 37.4%
viability, T/C [2]: 29.4%
viability, T/C [3]: 27.8%
viability, T/C [4]: 26%
viability, T/C [5]: 24.2%
viability, T/C [6]: 26.7%
viability, T/C [7]: 43.9%
viability, T/C [8]: 38%
viability, T/C [9]: 31.3%
viability, T/C [10]: 33.2%
viability, T/C [11]: 31.9%
viability, T/C [12]: 32.9%
viability, T/C [13]: 51.2%
viability, T/C [14]: 44.1%
viability, T/C [15]: 39.5%
viability, T/C [16]: 35%
viability, T/C [17]: 37.1%
viability, T/C [18]: 38.5%
viability, T/C [19]: 51.9%
viability, T/C [20]: 45.4%
viability, T/C [21]: 47%
viability, T/C [22]: 40.1%
viability, T/C [23]: 45%
viability, T/C [24]: 50.5%
viability, T/C [25]: 51.9%
viability, T/C [26]: 46.5%
viability, T/C [27]: 47%
viability, T/C [28]: 44.2%
viability, T/C [29]: 50.8%
viability, T/C [30]: 49.9%
viability, T/C [31]: 46.6%
viability, T/C [32]: 48.4%
viability, T/C [33]: 46%
viability, T/C [34]: 47.6%
viability, T/C [35]: 50.3%
viability, T/C [36]: 51.9%
